ChEMBL document CHEMBL4052641 (Eur J Med Chem, 2017)
Blank lines part the entries; values can stand above or below the compound they belong to.

Legend:
[1] = Inhibition of butter milk xanthine oxidase (unknown origin) assessed as reduction in uric acid formation using xanthine as substrate by UV-Vis spectrophotometric assay
[2] = Potency index, ratio of allopurinol IC50 to compound IC50 for butter milk xanthine oxidase (unknown origin)
[3] = target: T1, Xanthine dehydrogenase/oxidase (Bos taurus, UniProt P80457); experiment: Competitive inhibition of bovine milk xanthine oxidoreductase assessed as reduction in uric acid formation by spectrophotometric assay
[4] = Inhibition of butter milk xanthine oxidase (unknown origin) assessed as reduction in uric acid formation using xanthine as substrate by spectrophotometric assay
[5] = Potency index, ratio of quercetin IC50 to compound IC50 for butter milk xanthine oxidase (unknown origin)
[6] = target: T1, Xanthine dehydrogenase/oxidase; experiment: Potency index, ratio of allopurinol IC50 to compound IC50 for bovine milk xanthine oxidase; details: cattle
[7] = target: T1, Xanthine dehydrogenase/oxidase; experiment: Inhibition of bovine milk xanthine oxidase assessed as reduction in uric acid formation using xanthine as substrate preincubated for 5 mins followed by substrate addition by UV-Vis spectrophotometric assay
[8] = target: T2, Xanthine dehydrogenase/oxidase (Homo sapiens, UniProt P47989); experiment: Potency index, ratio of allopurinol IC50 to compound IC50 for xanthine oxidase (unknown origin)
[9] = target: T2, Xanthine dehydrogenase/oxidase; experiment: Inhibition of xanthine oxidase (unknown origin) assessed as reduction in uric acid formation using xanthine as substrate after 4 mins by UV-Vis spectrophotometric assay
[10] = target: T1, Xanthine dehydrogenase/oxidase; experiment: Inhibition of bovine milk xanthine oxidase assessed as reduction in uric acid formation using xanthine as substrate preincubated for 3 hrs followed by substrate addition measured after 1 min by UV spectrophotometric assay
[11] = Inhibition of butter milk xanthine oxidase (unknown origin) assessed as reduction in uric acid formation using xanthine as substrate by double beam spectrophotometric assay
[12] = target: T2, Xanthine dehydrogenase/oxidase; experiment: Inhibition of xanthine oxidase (unknown origin) using xanthine as substrate measured at every 1 mins up to 5 mins
[13] = target: T2, Xanthine dehydrogenase/oxidase; experiment: Inhibition of xanthine oxidase (unknown origin) assessed as reduction in uric acid formation using xanthine as substrate after 30 mins by UV-Vis spectrophotometric assay
[14] = target: T1, Xanthine dehydrogenase/oxidase; experiment: Inhibition of bovine milk xanthine oxidase assessed using xanthine as substrate after 10 mins by fluorometric assay
[15] = target: T1, Xanthine dehydrogenase/oxidase; experiment: Inhibition of bovine milk xanthine oxidase assessed as reduction in uric acid formation using xanthine as substrate preincubated for 3 hrs followed by substrate addition by UV-Vis spectrophotometric assay
[16] = target: T1, Xanthine dehydrogenase/oxidase; experiment: Potency index, ratio of apigenin IC50 to compound IC50 for bovine milk xanthine oxidase; details: cattle
[17] = target: T2, Xanthine dehydrogenase/oxidase; experiment: Inhibition of xanthine oxidase (unknown origin) assessed as reduction in uric acid formation using xanthine as substrate after 10 mins
[18] = target: T2, Xanthine dehydrogenase/oxidase; experiment: Non-competitive inhibition of human xanthine oxidase

T2 sequence (P47989 whole entry): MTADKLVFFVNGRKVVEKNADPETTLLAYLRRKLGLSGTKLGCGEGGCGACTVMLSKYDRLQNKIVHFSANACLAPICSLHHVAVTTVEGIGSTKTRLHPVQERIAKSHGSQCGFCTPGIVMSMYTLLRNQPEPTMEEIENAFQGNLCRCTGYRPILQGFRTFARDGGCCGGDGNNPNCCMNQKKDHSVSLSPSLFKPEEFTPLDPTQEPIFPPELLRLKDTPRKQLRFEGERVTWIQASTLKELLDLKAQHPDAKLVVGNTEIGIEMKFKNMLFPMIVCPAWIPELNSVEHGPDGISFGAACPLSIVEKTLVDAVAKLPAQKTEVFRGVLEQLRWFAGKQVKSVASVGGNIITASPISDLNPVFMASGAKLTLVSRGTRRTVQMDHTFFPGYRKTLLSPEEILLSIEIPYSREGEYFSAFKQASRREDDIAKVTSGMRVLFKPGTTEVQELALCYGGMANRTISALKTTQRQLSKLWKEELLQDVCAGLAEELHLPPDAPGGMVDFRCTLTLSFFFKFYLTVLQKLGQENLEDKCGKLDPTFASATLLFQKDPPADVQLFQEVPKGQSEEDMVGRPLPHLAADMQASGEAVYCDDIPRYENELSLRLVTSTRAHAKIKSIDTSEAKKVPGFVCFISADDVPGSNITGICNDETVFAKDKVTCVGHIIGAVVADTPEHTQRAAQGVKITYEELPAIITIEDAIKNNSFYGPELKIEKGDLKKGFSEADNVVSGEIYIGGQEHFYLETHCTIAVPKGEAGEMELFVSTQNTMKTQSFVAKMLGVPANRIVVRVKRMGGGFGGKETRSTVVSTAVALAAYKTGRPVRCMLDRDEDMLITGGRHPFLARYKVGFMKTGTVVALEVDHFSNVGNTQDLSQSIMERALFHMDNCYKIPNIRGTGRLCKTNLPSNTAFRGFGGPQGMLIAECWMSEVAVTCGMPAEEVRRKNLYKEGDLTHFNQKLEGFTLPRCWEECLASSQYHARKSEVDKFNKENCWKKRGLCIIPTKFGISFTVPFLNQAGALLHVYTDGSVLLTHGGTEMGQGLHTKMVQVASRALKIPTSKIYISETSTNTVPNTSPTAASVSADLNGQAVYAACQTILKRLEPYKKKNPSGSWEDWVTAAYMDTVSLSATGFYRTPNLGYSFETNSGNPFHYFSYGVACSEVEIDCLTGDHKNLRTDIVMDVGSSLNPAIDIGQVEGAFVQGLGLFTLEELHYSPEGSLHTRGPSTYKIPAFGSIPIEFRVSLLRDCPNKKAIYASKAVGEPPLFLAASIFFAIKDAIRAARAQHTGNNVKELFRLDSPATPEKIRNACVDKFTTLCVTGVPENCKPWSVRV
T1 sequence (P80457 whole entry): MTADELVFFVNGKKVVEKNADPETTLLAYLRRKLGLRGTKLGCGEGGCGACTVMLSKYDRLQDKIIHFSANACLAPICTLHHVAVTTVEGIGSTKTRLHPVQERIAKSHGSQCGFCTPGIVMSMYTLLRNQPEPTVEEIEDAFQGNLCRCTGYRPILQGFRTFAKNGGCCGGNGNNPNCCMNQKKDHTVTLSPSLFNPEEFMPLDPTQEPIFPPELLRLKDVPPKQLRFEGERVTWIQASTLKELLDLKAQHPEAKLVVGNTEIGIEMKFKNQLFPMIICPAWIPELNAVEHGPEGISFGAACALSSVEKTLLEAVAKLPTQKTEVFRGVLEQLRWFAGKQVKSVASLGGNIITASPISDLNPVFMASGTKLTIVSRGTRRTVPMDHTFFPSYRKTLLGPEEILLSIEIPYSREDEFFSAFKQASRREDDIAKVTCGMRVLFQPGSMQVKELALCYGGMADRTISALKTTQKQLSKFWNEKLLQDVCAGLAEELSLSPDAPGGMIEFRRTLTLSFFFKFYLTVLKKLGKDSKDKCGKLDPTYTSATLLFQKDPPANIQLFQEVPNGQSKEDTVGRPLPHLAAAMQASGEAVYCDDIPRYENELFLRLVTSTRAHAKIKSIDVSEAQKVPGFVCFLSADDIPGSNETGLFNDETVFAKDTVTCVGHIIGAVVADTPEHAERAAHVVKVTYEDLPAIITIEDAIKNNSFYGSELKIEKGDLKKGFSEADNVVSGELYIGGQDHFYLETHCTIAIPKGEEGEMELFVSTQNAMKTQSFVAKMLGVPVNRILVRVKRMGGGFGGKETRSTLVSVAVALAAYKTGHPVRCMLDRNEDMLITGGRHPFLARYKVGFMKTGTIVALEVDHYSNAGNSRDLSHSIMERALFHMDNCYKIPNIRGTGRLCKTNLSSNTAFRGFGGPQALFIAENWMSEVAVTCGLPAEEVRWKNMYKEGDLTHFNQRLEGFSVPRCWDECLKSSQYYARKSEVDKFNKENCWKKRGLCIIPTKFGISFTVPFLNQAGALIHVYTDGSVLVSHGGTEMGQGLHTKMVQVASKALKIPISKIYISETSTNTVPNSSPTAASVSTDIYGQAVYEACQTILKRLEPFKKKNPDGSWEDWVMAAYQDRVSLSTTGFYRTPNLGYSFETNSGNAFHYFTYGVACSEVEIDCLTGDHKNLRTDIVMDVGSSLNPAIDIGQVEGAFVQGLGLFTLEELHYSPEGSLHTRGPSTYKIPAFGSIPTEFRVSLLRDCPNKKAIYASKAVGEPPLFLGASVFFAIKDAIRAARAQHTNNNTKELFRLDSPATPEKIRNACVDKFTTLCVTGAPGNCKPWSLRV

IC50 [1]: 1110 nM
Ratio IC50 [2]: 3.78
Compound: CCCCCCOC(=O)C(=O)Nc1[nH]cnc1C(N)=O

IC50 [1]: 3880 nM
Ratio IC50 [2]: 1.08
Compound: CCCCSc1nc(O)c2[nH]cnc2n1

Ki [3]: 5.7 nM
Compound: N#Cc1cc(-c2n[nH]c(-c3ccncc3)n2)ccn1 [TOPIROXOSTAT]

IC50 [1]: 28 nM
Ratio IC50 [2]: 150
Compound: COCCCCSc1nc2[nH]cnc2c(=O)[nH]1

IC50 [4]: 2000 to 4220 nM
Ratio IC50 [5]: 2.65
Compound: O=C(/C=C/c1ccc2c(c1)O[C@H](c1ccc(O)c(O)c1)[C@@H](C(=O)O)O2)O/C=C\c1ccc(O)c(O)c1

IC50 [4]: 600 to 1100 nM
Ratio IC50 [5]: 8.83
Compound: O=C(/C=C/c1ccc2c(c1)O[C@H](C(=O)O)[C@H](c1ccc(O)c(O)c1)O2)O/C=C\c1ccc(O)c(O)c1

IC50 [7]: 10200 nM
Compound: Oc1nc(-c2ccccc2)cc(-c2ccccc2)n1
Ratio IC50 [6]: 1.2

IC50 [1]: 560 nM
Ratio IC50 [2]: 7.5
Compound: CCCCCCSc1nc2c(=O)[nH]cnc2[nH]1

IC50 [7]: 6450 nM
Compound: O=c1nc(-c2ccncc2)cc(-c2cccs2)[nH]1
Ratio IC50 [6]: 1.9

IC50 [9]: 16700 nM
Compound: C=CCc1ccc(O)c(O)c1 [HYDROXYCHAVICOL]
Ratio IC50 [8]: 1.84

IC50 [4]: 13.6 nM
Ratio IC50 [5]: 28.2
Compound: O=c1cc(-c2ccc(-c3ccccc3)cc2)oc2cc(O)cc(O)c12

IC50 [10]: 1730 nM
Compound: O=c1c(-c2ccc(O)cc2)coc2cc(O)cc(O)c12 [GENISTEIN]
Ratio IC50 [6]: 2.04

Compound: Oc1ncnc2[nH]ncc12 [ALLOPURINOL]
IC50 [4]: 5300 nM

Compound: O=c1c(O)c(-c2ccc(O)c(O)c2)oc2cc(O)cc(O)c12 [QUERCETIN]
IC50 [4]: 383 nM
IC50 [11]: 400 nM

IC50 [12]: 1800 nM
Compound: CC1(C)C=Cc2cc(C(=O)/C=C/c3ccc(O)c(O)c3)c(O)cc2O1
Ratio IC50 [8]: 1.11

IC50 [1]: 670 nM
Ratio IC50 [2]: 6.27
Compound: CCCOCCSc1nc2[nH]cnc2c(=O)[nH]1

IC50 [13]: 20900 nM
Compound: O=[N+]([O-])c1cccc(C2Nc3ccccc3-c3cc(-c4ccccc4)nn32)c1 (stereo not drawn)
Ratio IC50 [8]: 1.51

Ratio IC50 [5]: 8
IC50 [11]: 50 nM
Compound: O=c1oc2c(O)ccc(-c3oc4cc(O)cc(O)c4c(=O)c3O)c2s1

IC50 [7]: 12000 nM
Compound: O=c1nc(-c2ccc(Cl)cc2)cc(-c2ccc(Cl)cc2)[nH]1
Ratio IC50 [6]: 1.02

IC50 [4]: 90.8 nM
Ratio IC50 [5]: 4.22
Compound: CC(C)(C)c1ccc(-c2cc(=O)c3c(O)cc(O)cc3o2)cc1

IC50 [1]: 1920 nM
Ratio IC50 [2]: 2.19
Compound: CCCCCOC(=O)C(=O)Nc1[nH]cnc1C(N)=O

IC50 [1]: 58 nM
Ratio IC50 [2]: 72.4
Compound: CCOCCCSc1nc2[nH]cnc2c(=O)[nH]1

IC50 [13]: 11000 nM
Compound: Oc1c(Cl)cc(Cl)cc1C1Nc2ccccc2-c2cc(-c3ccccc3)nn21 (stereo not drawn)
Ratio IC50 [8]: 2.89

Compound: O=c1cc(-c2ccc(O)c(O)c2)oc2cc(O)cc(O)c12 [LUTEOLIN]
Ratio IC50 [6]: 25.32
IC50 [14]: 10200 nM

IC50 [15]: 3570 nM
Compound: O=c1cc(-c2ccc(O)cc2)oc2cc(O)cc(O)c12 [APIGENIN]

IC50 [4]: 347 nM
Ratio IC50 [5]: 1.1 to 1.74
Compound: O=c1cc(-c2ccc(-c3ccccc3)cc2)oc2cc(O)ccc12

IC50 [12]: 600 nM
Compound: CC(C)=CCc1cc(C(=O)/C=C/c2ccc(O)c(O)c2)c(O)cc1O [BROUSSOCHALCONE A]
Ratio IC50 [8]: 3.33

IC50 [14]: 71500 nM
Compound: O=c1cc(-c2ccccc2)oc2cc(O)c(O)c(O)c12 [BAICALEIN]
Ratio IC50 [6]: 3.61

IC50 [15]: 1260 nM
Compound: O=c1cc(-c2ccccc2)oc2cc(O)cc(O)c12 [CHRYSIN]
Ratio IC50 [6]: 2.33
Ratio IC50 [16]: 2.83

IC50 [17]: 92 nM
Compound: O=C1CC(c2ccc(O)c(-c3c(O)cc(O)c4c3OC(c3ccc(O)cc3)CC4=O)c2)Oc2cc(O)cc(O)c21 (stereo not drawn)
Ratio IC50 [8]: 1.09

IC50 [7]: 6240 nM
Compound: O=c1cc(-c2cccnc2)[nH]c2ccccc12
Ratio IC50 [6]: 1.33

IC50 [4]: 5200 to 28200 nM
Ratio IC50 [5]: 1.02
Compound: O=C(/C=C/c1ccc2c(c1)O[C@@H](c1ccc(O)c(O)c1)[C@@H](C(=O)O)O2)O/C=C\c1ccc(O)c(O)c1

IC50 [4]: 220 nM
Ratio IC50 [5]: 1.74
Compound: COc1ccc(-c2cc(=O)c3c(O)cc(O)cc3o2)cc1 [ACACETIN]

Ki [18]: 0.1 nM
Compound: Cc1nc(-c2ccc(OCC(C)C)c(C#N)c2)sc1C(=O)O [FEBUXOSTAT]

IC50 [7]: 7230 nM
Compound: O=c1nc(-c2ccncc2)cc(-c2ccco2)[nH]1
Ratio IC50 [6]: 1.69

IC50 [7]: 11200 nM
Compound: O=c1nc(-c2ccncc2)cc(-c2cccc3ccccc23)[nH]1
Ratio IC50 [6]: 1.09

IC50 [12]: 280 nM
Compound: C=CCc1cc(O)c(O)cc1C(C=C)c1ccc(O)c(O)c1 (stereo not drawn)
Ratio IC50 [8]: 25.21

IC50 [1]: 660 nM
Ratio IC50 [2]: 6.36
Compound: CCCCCCSc1nc2c(=O)[nH]c(O)nc2[nH]1
